The test concerns the target T1, inositol monophosphatase (IMPase) (Homo sapiens, UniProt P29218).
T1 sequence (P29218 1-277): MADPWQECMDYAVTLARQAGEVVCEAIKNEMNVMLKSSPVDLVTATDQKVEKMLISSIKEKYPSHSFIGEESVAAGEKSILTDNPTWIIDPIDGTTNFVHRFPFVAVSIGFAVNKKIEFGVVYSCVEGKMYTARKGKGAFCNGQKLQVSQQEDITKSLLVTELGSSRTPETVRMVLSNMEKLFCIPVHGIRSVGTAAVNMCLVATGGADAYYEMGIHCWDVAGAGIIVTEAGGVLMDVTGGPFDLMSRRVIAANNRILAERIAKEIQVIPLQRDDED
As to the kind of experiment: electrospray mass spectrometry of the covalent complex. It counts as biochemical.

Molecules are shown by their SMILES.

With `O=c1c2ccccc2[se]n1-c1ccccc1` [ebselen], the 50% inhibitory concentration (IC50) stood at 1500 nM.

The values are drawn from publication PMC3605789 (Nature communications, 2013).
